# Where two headings read alike, the source gives them in different places.
# Columns and labels:
# Assay type in all cases: cell-based, human
# hiPSC-CMs = details: for Arrhythmia incidence by dose level: all sites and cell types tested; for FPDmax compared to pre-addition values: 30 min post compound addition, low risk compounds; for Arrhythmia: one site; for Inotropic effect (impedance signal): hiPSC-CMs; for Average % change in EFP amplitude / FPDmax: with increasing concentrations; for FPD prolongation: cell types other than CLS
# [1] = tested on: CDI (iCell Cardiomyocytes^2, Cellular Dynamics International) hiPSC-CMs
# [2] = tested on: PLR (Pluricyte Cardiomyocytes, Ncardia) hiPSC-CMs
# [3] = tested on: AXG (Cor.4U, Ncardia) hiPSC-CMs
# [4] = tested on: CLS (Cellartis Cardiomyocytes, Takara Bio Clontech) hiPSC-CMs
# [5] = all sites and cell types, dose levels of Table 3
smiles,measurement,setting,value
COc1ccc(CCN2CCC(Nc3nc4ccccc4n3Cc3ccc(F)cc3)CC2)cc1 [Astemizole],Arrhythmia incidence by dose level,hiPSC-CMs; dose levels of Table 3,"arrhythmia in most cases at dose 3, and almost all cases at dose 4"
CN(C)CCCN1c2ccccc2Sc2ccc(Cl)cc21 [Chlorpromazine],Arrhythmic events,hiPSC-CMs; independent of the cell type or site,did not induce arrhythmic events
COc1cc(N)c(Cl)cc1C(=O)NC1CCN(CCCOc2ccc(F)cc2)CC1OC (stereo not drawn) [Cisapride],Arrhythmia incidence by dose level,hiPSC-CMs; dose levels of Table 3,"arrhythmia in most cases at dose 3, and almost all cases at dose 4"
CC[C@H]1OC(=O)[C@H](C)[C@@H](O[C@H]2C[C@@](C)(OC)[C@@H](O)[C@H](C)O2)[C@H](C)[C@@H](O[C@@H]2O[C@H](C)C[C@H](N(C)C)[C@H]2O)[C@](C)(OC)C[C@@H](C)C(=O)[C@H](C)[C@@H](O)[C@]1(C)O [Clarithromycin],Arrhythmia incidence by dose level,hiPSC-CMs; dose levels of Table 3,"arrhythmia in most cases at dose 3, and almost all cases at dose 4"
"CC(C)NCC(O)c1ccc(NS(C)(=O)=O)cc1 (stereo not drawn) [D,l Sotalol]",Arrhythmia detection starting at (dose level),hiPSC-CMs; [5],dose 3
same,Arrhythmic events,"[1]; CDI, 10 μM",EAD-like events and ectopic beats
same,BRCoV,"[1]; CDI, post addition of 10 μM",large increase
same,Beat rate,"[1]; CDI, post addition of 10 μM",decrease
same,Impedance amplitude,"[1]; CDI, post addition of 10 μM",remains unchanged
COc1ccc([C@@H]2Sc3ccccc3N(CCN(C)C)C(=O)[C@@H]2OC(C)=O)cc1 [Diltiazem],FPDmax compared to pre-addition values,hiPSC-CMs,decrease
CC(C)N(CCC(C(N)=O)(c1ccccc1)c1ccccn1)C(C)C (stereo not drawn) [Disopyramide],Arrhythmia,hiPSC-CMs; 10 and 100 μM,Arrhythmia was detected
same,Arrhythmia detection starting at (dose level),hiPSC-CMs; [5],dose 3
same,Inotropic effect (impedance signal),hiPSC-CMs,negative inotropic effect
same,Average % change in impedance amplitude,"hiPSC-CMs; with increasing concentration, all cell types at one site",decreased
same,Average % change in EFP amplitude,hiPSC-CMs; all cell types at one site,decreased
same,FPDmax,hiPSC-CMs; all cell types at one site,increased
O=c1[nH]c2ccccc2n1CCCN1CCC(n2c(=O)[nH]c3cc(Cl)ccc32)CC1 [Domperidone],Arrhythmia,"hiPSC-CMs; 0.3, 3 μM",arrhythmia is marked
same,Arrhythmia incidence by dose level,hiPSC-CMs; dose levels of Table 3,"arrhythmia in most cases at dose 3, and almost all cases at dose 4"
same,Inotropic effect (impedance signal),hiPSC-CMs,negative inotropic effect
same,Average % change in EFP amplitude,hiPSC-CMs; all cell types at one site,decreased
same,FPDmax,hiPSC-CMs; all cell types at one site,increased
O=C(CCCN1CC=C(n2c(=O)[nH]c3ccccc32)CC1)c1ccc(F)cc1 [Droperidol],Arrhythmic events,[2]; 0.3 μM,rolling EAD-like events
same,FPDmax,[2]; 0.3 μM,increase
same,Beat rate,[2]; post addition of 0.3 μM,decrease
same,Beat rate coefficient of variation,[2]; post addition of 0.3 μM,increase
same,Impedance amplitude,[2]; post addition of 0.3 μM,remains unchanged
same,Arrhythmia incidence by dose level,hiPSC-CMs; dose levels of Table 3,"arrhythmia in most cases at dose 3, and almost all cases at dose 4"
CCOC(=O)N1CCC(=C2c3ccc(Cl)cc3CCc3cccnc32)CC1 [Loratadine],FPDmax compared to pre-addition values,hiPSC-CMs,not a significant change
COC(=O)C1=C(C)NC(C)=C(C(=O)OC)C1c1ccccc1[N+](=O)[O-] [Nifedipine],Chronic effect on cell viability (base impedance),"[3]; AXG, recorded over 24 h",time and concentration-dependent reduction of cell viability
same,FPDmax compared to pre-addition values,hiPSC-CMs,decrease
same,Inotropic effect (impedance signal),hiPSC-CMs,negative inotropic effect
CCOC(=O)C1=C(C)NC(C)=C(C(=O)OC)C1c1cccc([N+](=O)[O-])c1 (stereo not drawn) [Nitrendipine],FPDmax compared to pre-addition values,hiPSC-CMs,decrease
Cc1nccn1CC1CCc2c(c3ccccc3n2C)C1=O (stereo not drawn) [Ondansetron],Arrhythmia incidence by dose level,hiPSC-CMs; dose levels of Table 3,"arrhythmia in most cases at dose 3, and almost all cases at dose 4"
O=c1[nH]c2ccccc2n1C1CCN(CCCC(c2ccc(F)cc2)c2ccc(F)cc2)CC1 [Pimozide],Arrhythmogenicity,"[3]; site 4, AXG cells",not arrhythmogenic
same,Arrhythmia incidence by dose level,hiPSC-CMs; dose levels of Table 3,"arrhythmia in most cases at dose 3, and almost all cases at dose 4"
C=C[C@H]1C[N@@]2CC[C@H]1C[C@@H]2[C@@H](O)c1ccnc2ccc(OC)cc12 [Quinidine],Arrhythmia detection starting at (dose level),hiPSC-CMs; [5],dose 2
same,Incidence of FPDmax>10% or > 30% started at (dose level),hiPSC-CMs; [5],dose 1
Cc1nc2n(c(=O)c1CCN1CCC(c3noc4cc(F)ccc34)CC1)CCCC2 [Risperidone],Change in the FPD,[3]; AXG cells,no significant change
same,Change in the FPD,[4]; CLS cells,no significant change
same,Change in the FPD,[1]; CDI cells,> 10%
CC/C(=C(\c1ccccc1)c1ccc(OCCN(C)C)cc1)c1ccccc1 [Tamoxifen],Decrease of average % change in EFP amplitude,"[1]; CDI, 3 μM, one site",~ 40%
same,Decrease of average % change in FPDmax,"[1]; CDI, 3 μM, one site",~ 40%
same,Increase in beat rate,"[1]; CDI, 3 μM, one site",~ 40%
same,Changes in average impedance signals,"[1]; CDI, 0.3, 0.9 and 3 μM",No significant changes
CC(C)(C)c1ccc(C(O)CCCN2CCC(C(O)(c3ccccc3)c3ccccc3)CC2)cc1 (stereo not drawn) [Terfenadine],Number of experiments with quiescence,hiPSC-CMs; other experiments,4
same,Number of experiments with arrhythmia,"hiPSC-CMs; site 4, AXG and site 4, CLS",2
COc1cc2c(Nc3ccc(Br)cc3F)ncnc2cc1OCC1CCN(C)CC1 [Vandetanib],Arrhythmia detection starting at (dose level),hiPSC-CMs; [5],dose 3
CN(CCOc1ccc(NS(C)(=O)=O)cc1)CCc1ccc(NS(C)(=O)=O)cc1 [dofetilide],FPD prolongation upon application,"[4]; CLS hiPSC-CMs, 0.5-10 nM",did not exhibit an expected FPD prolongation
same,FPD prolongation,hiPSC-CMs; 0.5 nM,approx. 10%
same,FPD prolongation,"hiPSC-CMs; 10 nM, arrhythmia present",~100%
same,Effect on FPD and arrhythmia,hiPSC-CMs; wells treated with 5 nM and 10 nM,prolongation of FPD and arrhythmia

# — PMC6146285 (Journal of pharmacological and toxicological methods, 2018)
